Broadly, the TGI is the concentration giving total growth inhibition. Usually GI50 stands for the concentration giving 50% growth inhibition. One may read the EC50 as the concentration at which the effect is half-maximal. In general, EC90 refers to the concentration needed for an effect of 90%.

In one data set the test system is HT29. Particulars: for TGI: HT29, colon cancer, mutant p53, 48 h; for GI50 / CC50: Homo sapiens, HT-29, 48 h; for CC50: read-out: LC50.
The nature of data set [1]: Cytotoxicity (CellTiter 96 AQueous One, MTS). Format: cell-based, African green monkey (grivet) Chlorocebus aethiops. Particulars: African green monkey (Chlorocebus aethiops), Vero cells. Here is the method:
(§1) The cytotoxicity and human immunodeficiency virus type 1 (HIV-1) strain LAI replication assays were performed in freshly explanted primary human peripheral blood mononuclear cells (PBM cells) according to published procedures. The assays were conducted at least in triplicate and treated statistically (if possible). HIV-1LAI (= HIV-1BRU = LAV-1) was assayed in primary human peripheral blood lymphocyte (PBL) cells in the presence of a drug being evaluated. The parameter for antiviral activity was a reduction in reverse transcriptase (RT) activity in the cell supernatant after Triton X–100-mediated lysis of released virions, as measured using [5α-^3H]dTTP (5α-tritiated thymidine 5′-triphosphate) incorporation into poly(rA)•poly(dT) directed by the primed RNA template poly(rA)•oligo(dT). […] Cytotoxicity on PBL and the other cells (CCRF−CEM, Vero) exerted by the test compounds was determined as described by Stuyver et al. by application of the CellTiter 96® AQueous One Solution Cell Proliferation Assay (Promega Corp., Madison, WI, USA). Briefly, the phenazine ethosulfate (PES)-coupled reduction of the tetrazolium salt 3-(4,5-dimethylthiazol-2-yl)-5-(3-carboxymethoxyphenyl)-2-(4-sulfophenyl)-2H-tetrazolium (MTS) to a purple, water-soluble formazan by living, undamaged cells was measured.

Data set [2] can be described thus: Cytotoxicity (CellTiter 96 AQueous One, MTS). Format: cell-based. Particulars: human; PBM cells. The protocol:
as §1

The subject of another data set is HIV-1LAI. In words: HIV-1LAI replication reverse transcriptase assay in primary PBM cells. The format is cell-based, human immunodeficiency virus type 1. The protocol:
The cytotoxicity and human immunodeficiency virus type 1 (HIV-1) strain LAI replication assays were performed in freshly explanted primary human peripheral blood mononuclear cells (PBM cells) according to published procedures. The assays were conducted at least in triplicate and treated statistically (if possible). HIV-1LAI (= HIV-1BRU = LAV-1) was assayed in primary human peripheral blood lymphocyte (PBL) cells in the presence of a drug being evaluated. The parameter for antiviral activity was a reduction in reverse transcriptase (RT) activity in the cell supernatant after Triton X–100-mediated lysis of released virions, as measured using [5α-^3H]dTTP (5α-tritiated thymidine 5′-triphosphate) incorporation into poly(rA)•poly(dT) directed by the primed RNA template poly(rA)•oligo(dT). […] The detailed assay methodology was reported by Schinazi et al. as based on an older assay system of Spira et al.. The experiments were conducted in triplicate and treated statistically using regression curve analysis (r^2 coefficient of determination). The RT inhibitor AZT (zidovudine, 3′-azido-3′-deoxythymidine; RETROVIR™) served as a positive control. Cytotoxicity on PBL and the other cells (CCRF−CEM, Vero) exerted by the test compounds was determined as described by Stuyver et al. by application of the CellTiter 96® AQueous One Solution Cell Proliferation Assay (Promega Corp., Madison, WI, USA). Briefly, the phenazine ethosulfate (PES)-coupled reduction of the tetrazolium salt 3-(4,5-dimethylthiazol-2-yl)-5-(3-carboxymethoxyphenyl)-2-(4-sulfophenyl)-2H-tetrazolium (MTS) to a purple, water-soluble formazan by living, undamaged cells was measured.

In a further data set the test system is U251. Particulars: for GI50 / CC50: Homo sapiens, U-251, 48 h; for CC50: read-out: LC50; for TGI: U251, CNS cancer (brain tumor), mutant p53, 48 h.
Data set [3] has as its system p21^Waf1/p21^Cip1, cyclin D1, Bax. As to the kind of experiment: Expression of p53-regulated protein factors in cancer cells (data not shown). Particulars: mCRPC cells, multiple myeloma U266 cells, plasmacytoma RPMI-8226 cells. The format is cell-based.
The test system of another data set is NCI/ADR-RES. Particulars: for GI50 / CC50: Homo sapiens, 48 h; for CC50: read-out: LC50; for TGI: ovarian cancer, mutant p53, 48 h.
In another data set the test system is HOP-92. The format is cell-based. Particulars: HOP-92, non-small-cell lung cancer, mutant p53, 48 h.
The next data set has as its system SR. Particulars: for GI50 / CC50: Homo sapiens, 48 h; for CC50: read-out: LC50; for TGI: leukemia, wild-type p53, 48 h.
In another data set the test system is MDA-MB-435. Particulars: for GI50 / CC50: Homo sapiens, MDA-MB-435, 48 h; for CC50: read-out: LC50; for TGI: MDA-MB-435, melanoma, mutant p53, 48 h.
Another data set has as its system K-562. Particulars: for GI50 / CC50: Homo sapiens, K562, 48 h; for CC50: read-out: LC50; for TGI: K-562, leukemia, mutant p53, 48 h.
The test system of data set [4] is EKVX. In words: cells. Particulars: Homo sapiens, 48 h, read-out: LC50.
The test system of data set [5] is EKVX. Particulars: non-small-cell lung cancer, mutant p53, 48 h.

The structures appear in SMILES notation. Some results are limits rather than exact numbers.

Regarding `c1cc(CNC23CC4CC(CC(C4)C2)C3)cc(C[N+](Cc2cccc(CNC34CC5CC(CC(C5)C3)C4)c2)(Cc2cccc(CNC34CC5CC(CC(C5)C3)C4)c2)Cc2cccc(CNC34CC5CC(CC(C5)C3)C4)c2)c1` (centres unmarked) [Compound 1, tetrakis{3-[(tricyclo[3.3.1.1^3,7]decan-1-ammonio)methyl]benzyl}ammonium pentachloride], the TGI in the data set on HT29 is 2820 nM; in the data set on HL-60 (TB) (HL-60 (TB), leukemia, mutant p53, 48 h) it was 2710 nM; with U251, 2690 nM; in the data set on NCI/ADR-RES, 4550 nM; with HOP-92 it was 3060 nM; with SR, greater than 50000 nM. The TGI in the data set with MDA-MB-435 was 2110 nM; in the data set with K-562 it was 36200 nM. Further, the GI50 in the data set with HT29 turned out to be 857 nM; with HL-60 (TB) (Homo sapiens, HL-60, 48 h), 870 nM; with U251 it was 1120 nM; with NCI/ADR-RES it was 1440 nM; in the data set with HOP-92 (Homo sapiens), 1140 nM; in the data set with SR, 1490 nM. Further, the GI50 in the data set on MDA-MB-435 was found to be 825 nM; in the data set with K-562 it was 1460 nM. Further, the CC50 in the data set on HT29 is 14600 nM; in data set [1], 1800 nM; in data set [2], 2200 nM; with U251, 8790 nM; in the data set with NCI/ADR-RES it was greater than 50000 nM; with HOP-92 (Homo sapiens, read-out: LC50 (the source's name)), 12600 nM. In addition, the CC50 in the data set on SR is greater than 50000 nM; with MDA-MB-435 it was 6500 nM; with K-562, greater than 50000 nM. Moreover, in the data set with HIV-1LAI (Human immunodeficiency virus 1, PBMC, primary human PBM cells, reverse transcriptase activity in supernatant, read-out: Anti-HIV-1LAI activity EC50), the EC50 came to 560 nM. Further, in the data set with HIV-1LAI (Human immunodeficiency virus 1, PBMC, primary human PBM cells, reverse transcriptase activity in supernatant, read-out: Anti-HIV-1LAI activity EC90), the EC90 was 4300 nM. Moreover, in the data set on HIV-1LAI (PBM cells), the “SI50, selectivity index CC50/EC50” value is given as 3.9. Further, the “cyclin D1 protein factor” value in [3] is “downregulated”. Further, the “expression of cyclin-dependent kinase inhibitor p21^Waf1/p21^Cip1” value in data set [3] is “induced the expression”. Moreover, the “pro-apoptotic factor Bax expression” value in [3] is recorded as “increased”.
With `COc1cc2c(c(OC)c1OC)-c1ccc(NNC(N)=S)c(=O)cc1C(NC(C)=O)CC2` [Compound 2, N-[(aS,7S)-10-(2-carbamothioylhydrazinyl)-1,2,3-trimethoxy-9-oxo-5,6,7,9-tetrahydrobenzo[a]heptalen-7-yl]acetamide monohydrate × ⅔ (ethyl acetate)], the TGI was greater than 100000 nM with HT29; greater than 100000 nM with U251; greater than 100000 nM in the data set on NCI/ADR-RES; greater than 100000 nM with SR; 838 nM with MDA-MB-435; greater than 100000 nM with EKVX [5]. This compound also yielded a TGI in the data set on K-562 greater than 100000 nM. The GI50 in the data set with HT29 was found to be 336 nM; in the data set with U251 it was 479 nM; in the data set with NCI/ADR-RES, 25300 nM; in the data set with SR it was 279 nM; in the data set with MDA-MB-435, 233 nM; in the data set on K-562, 362 nM. In addition, the CC50 with HT29, in the data set on U251, in the data set with NCI/ADR-RES, in the data set with SR, with MDA-MB-435 and with EKVX [4] was greater than 100000 nM in each case. The CC50 in the data set with K-562 is greater than 100000 nM.
On to `COc1cc2c(c(OC)c1OC)-c1ccc(NNC(=S)N(Cc3cccc(C[N+](Cc4cccc(CNC56CC7CC(CC(C7)C5)C6)c4)(Cc4cccc(CNC56CC7CC(CC(C7)C5)C6)c4)Cc4cccc(CN(C(=S)NNc5ccc6c(cc5=O)C(NC(C)=O)CCc5cc(OC)c(OC)c(OC)c5-6)C56CC7CC(CC(C7)C5)C6)c4)c3)C34CC5CC(CC(C5)C3)C4)c(=O)cc1C(NC(C)=O)CC2` [Compound 3, [(bis{3-[(tricyclo[3.3.1.1^3,7]decan-1-ylamino)methyl]benzyl}ammonio)bis(methanediylbenzene-3,1-diylmethanediyl)]di-2-[(aS,7S)-7-(acetylamino)-1,2,3-trimethoxy-9-oxo-5,6,7,9-tetrahydrobenzo[a]heptalen-10-yl]-N-(tricyclo[3.3.1.1^3,7]decan-1-yl)hydrazinecarbothioamide chloride pentahydrate], for which the TGI amounted to 2810 nM in the data set on HT29; 12500 nM with NCI/ADR-RES; 4080 nM in the data set on HOP-92; 3500 nM in the data set with MDA-MB-435; 8460 nM with EKVX [5].

(Values after article PMC10892984, “Novel Antineoplastic Inducers of Mitochondrial Apoptosis in Human Cancer Cells” (Molecules, 2024).)
